9 compounds from patent US10344060B2 (priority 2013, dated 2019) can be followed below.

For this assay, the target named is hNav1.7 (Homo sapiens, UniProt Q15858). As to the kind of experiment: cell-based. Format: cell-based. Particulars: ratio of PX tonic IC50 values; Table 11.
hNav1.7, sequence (Q15858 whole entry): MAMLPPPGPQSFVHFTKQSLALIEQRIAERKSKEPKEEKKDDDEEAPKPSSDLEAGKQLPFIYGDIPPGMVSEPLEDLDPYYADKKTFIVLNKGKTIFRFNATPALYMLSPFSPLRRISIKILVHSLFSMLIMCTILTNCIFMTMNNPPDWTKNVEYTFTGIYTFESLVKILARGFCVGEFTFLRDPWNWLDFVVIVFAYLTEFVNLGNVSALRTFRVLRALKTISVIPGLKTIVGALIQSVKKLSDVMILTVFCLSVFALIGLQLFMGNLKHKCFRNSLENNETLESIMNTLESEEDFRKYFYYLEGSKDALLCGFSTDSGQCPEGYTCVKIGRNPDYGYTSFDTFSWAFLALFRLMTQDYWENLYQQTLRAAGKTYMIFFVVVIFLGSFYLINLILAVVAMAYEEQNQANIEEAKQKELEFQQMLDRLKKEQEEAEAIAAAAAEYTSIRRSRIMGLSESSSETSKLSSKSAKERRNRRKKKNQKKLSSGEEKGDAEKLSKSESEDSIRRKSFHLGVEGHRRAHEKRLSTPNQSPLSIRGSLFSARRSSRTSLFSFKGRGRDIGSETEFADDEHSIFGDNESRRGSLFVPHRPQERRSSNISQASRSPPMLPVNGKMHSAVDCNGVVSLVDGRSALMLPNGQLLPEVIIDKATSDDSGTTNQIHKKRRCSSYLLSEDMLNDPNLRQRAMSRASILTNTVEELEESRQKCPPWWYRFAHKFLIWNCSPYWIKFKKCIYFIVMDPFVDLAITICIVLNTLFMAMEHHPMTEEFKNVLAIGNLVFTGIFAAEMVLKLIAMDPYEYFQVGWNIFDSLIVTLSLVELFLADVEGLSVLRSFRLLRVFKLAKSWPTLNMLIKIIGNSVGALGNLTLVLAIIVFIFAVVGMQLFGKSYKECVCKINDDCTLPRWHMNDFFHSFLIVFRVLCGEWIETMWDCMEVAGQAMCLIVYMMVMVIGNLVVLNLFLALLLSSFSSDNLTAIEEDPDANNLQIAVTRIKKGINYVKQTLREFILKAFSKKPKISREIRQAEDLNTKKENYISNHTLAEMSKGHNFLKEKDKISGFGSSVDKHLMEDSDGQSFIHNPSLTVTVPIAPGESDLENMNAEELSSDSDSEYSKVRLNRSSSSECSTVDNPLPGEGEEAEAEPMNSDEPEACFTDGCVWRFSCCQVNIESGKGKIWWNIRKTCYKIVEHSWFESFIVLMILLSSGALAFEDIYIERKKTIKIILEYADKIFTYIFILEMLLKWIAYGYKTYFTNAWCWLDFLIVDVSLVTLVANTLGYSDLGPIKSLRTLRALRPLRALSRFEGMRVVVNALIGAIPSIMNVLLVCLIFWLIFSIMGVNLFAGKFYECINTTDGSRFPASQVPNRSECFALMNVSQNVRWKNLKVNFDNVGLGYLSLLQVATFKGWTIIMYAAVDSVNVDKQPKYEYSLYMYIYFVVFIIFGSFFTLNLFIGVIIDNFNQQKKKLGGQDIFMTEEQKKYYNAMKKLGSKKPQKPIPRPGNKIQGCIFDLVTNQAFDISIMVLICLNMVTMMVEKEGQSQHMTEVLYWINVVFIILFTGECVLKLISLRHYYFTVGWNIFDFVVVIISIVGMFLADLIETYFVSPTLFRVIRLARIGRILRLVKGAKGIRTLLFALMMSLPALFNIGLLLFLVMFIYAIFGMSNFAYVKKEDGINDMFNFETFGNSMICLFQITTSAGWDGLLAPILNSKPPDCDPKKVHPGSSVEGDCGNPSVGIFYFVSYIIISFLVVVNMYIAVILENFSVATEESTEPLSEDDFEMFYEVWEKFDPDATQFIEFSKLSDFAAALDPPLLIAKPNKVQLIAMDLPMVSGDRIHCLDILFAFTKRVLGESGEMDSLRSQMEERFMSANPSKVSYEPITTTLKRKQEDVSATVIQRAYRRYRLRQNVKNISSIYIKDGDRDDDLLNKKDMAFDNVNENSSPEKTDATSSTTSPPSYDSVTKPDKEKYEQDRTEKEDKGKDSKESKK
`CCCC[C@@H]1NC(=O)[C@H](Cc2c[nH]c3ccccc23)NC(=O)[C@H](CCCCN)NC(=O)[C@H](CCC(N)=O)NC(=O)[C@@H](NC(=O)[C@H](Cc2ccc(O)cc2)NC(=O)[C@H](N)CC(C)C)CSSC[C@@H]2NC(=O)[C@@H]3CSSC[C@@H](C(=O)N[C@@H](CCCNC(=N)N)C(=O)N[C@@H](CCCCN)C(=O)N[C@@H](CCC(=O)O)C(=O)N[C@H](C(N)=O)[C@@H](C)CC)NC(=O)[C@H](Cc4c[nH]c5ccccc45)NC(=O)[C@H](CC(C)C)NC(=O)[C@H](CCCCN)NC(=O)[C@H](CSSC[C@H](NC(=O)[C@H]([C@@H](C)O)NC(=O)[C@H](Cc4c[nH]c5ccccc45)NC1=O)C(=O)N[C@@H](CC(=O)O)C(=O)N[C@@H](CO)C(=O)N[C@@H](CCCCN)C(=O)N[C@@H](CCCNC(=N)N)C(=O)N[C@@H](C)C(=O)N3)NC(=O)[C@H](CCCNC(=N)N)NC(=O)[C@H](CC(C)C)NC(=O)CNC(=O)[C@H](CCCCNC(=O)CCOCCOCCOCCOCCOCCOCCOCCOCCOCCOCCOCCOCCN)NC2=O` [compound 464]: the Nav1.4/Nav1.7 came to 18.

Take `CCCC[C@@H]1NC(=O)[C@H](Cc2c[nH]c3ccccc23)NC(=O)[C@H](CCCCN)NC(=O)[C@H](CCC(N)=O)NC(=O)[C@@H](NC(=O)[C@H](Cc2ccc(O)cc2)NC(=O)[C@H](CC(C)C)NC)CSSC[C@@H]2NC(=O)[C@@H]3CSSC[C@@H](C(=O)N[C@@H](CCCNC(=N)N)C(=O)N[C@@H](CCCCN)C(=O)N[C@@H](CCC(=O)O)C(=O)N[C@H](C(N)=O)[C@@H](C)CC)NC(=O)[C@H](Cc4c[nH]c5ccccc45)NC(=O)[C@H](CC(C)C)NC(=O)[C@H](CCCCN)NC(=O)[C@H](CSSC[C@H](NC(=O)[C@H]([C@@H](C)O)NC(=O)[C@H](Cc4c[nH]c5ccccc45)NC1=O)C(=O)N[C@@H](CC(=O)O)C(=O)N[C@@H](CO)C(=O)N[C@@H](CCCCN)C(=O)N[C@@H](CCCNC(=N)N)C(=O)N[C@@H](C)C(=O)N3)NC(=O)[C@H](CCCNC(=N)N)NC(=O)[C@H](CC(C)C)NC(=O)CNC(=O)[C@H](CCCCNC(=O)CCOCCOCCOCCOCCOCCOCCOCCOCCOCCOCCOCCOCCN)NC2=O` [compound 466]: the Nav1.4/Nav1.7 is 19. Consider `CCCC[C@@H]1NC(=O)[C@H](Cc2c[nH]c3ccccc23)NC(=O)[C@H](CCCCN)NC(=O)[C@H](CCC(N)=O)NC(=O)[C@@H](NC(=O)[C@H](Cc2ccc(O)cc2)NC(=O)[C@H](CCC)NC(=O)[C@@H](N)CC(C)C)CSSC[C@@H]2NC(=O)[C@@H]3CSSC[C@@H](C(=O)N[C@@H](CCCNC(=N)N)C(=O)N[C@@H](CCCCN)C(=O)N[C@@H](CCC(=O)O)C(=O)N[C@H](C(N)=O)[C@@H](C)CC)NC(=O)[C@H](Cc4c[nH]c5ccccc45)NC(=O)[C@H](CC(C)C)NC(=O)[C@H](CCCCN)NC(=O)[C@H](CSSC[C@H](NC(=O)[C@H]([C@@H](C)O)NC(=O)[C@H](Cc4c[nH]c5ccccc45)NC1=O)C(=O)N[C@@H](CC(=O)O)C(=O)N[C@@H](CO)C(=O)N[C@@H](CCCCN)C(=O)N[C@@H](CCCNC(=N)N)C(=O)N[C@@H](CCCCNC(=O)CCOCCOCCOCCOCCOCCOCCOCCOCCOCCOCCOCCOCCN)C(=O)N3)NC(=O)[C@H](CCCNC(=N)N)NC(=O)[C@H](CC(C)C)NC(=O)CNC(=O)[C@H](CCC(=O)O)NC2=O` [compound 470], for which the Nav1.4/Nav1.7 is 34 and the Nav1.5/Nav1.7 turned out to be 372.

For `CCCC[C@@H]1NC(=O)[C@H](Cc2c[nH]c3ccccc23)NC(=O)[C@H](CCCCN)NC(=O)[C@H](CCC(N)=O)NC(=O)[C@@H](NC(=O)[C@H](Cc2ccc(O)cc2)NC(=O)[C@H](CCC)NC(=O)[C@@H](N)CC(C)C)CSSC[C@@H]2NC(=O)[C@@H]3CSSC[C@@H](C(=O)N[C@@H](CCCNC(=N)N)C(=O)N[C@@H](CCCCN)C(=O)N[C@@H](CCC(=O)O)C(=O)N[C@H](C(N)=O)[C@@H](C)CC)NC(=O)[C@H](Cc4c[nH]c5ccccc45)NC(=O)[C@H](CC(C)C)NC(=O)[C@H](CCCCN)NC(=O)[C@H](CSSC[C@H](NC(=O)[C@H]([C@@H](C)O)NC(=O)[C@H](Cc4c[nH]c5ccccc45)NC1=O)C(=O)N[C@@H](CC(=O)O)C(=O)N[C@@H](CO)C(=O)N[C@@H](CCCCN)C(=O)N[C@@H](CCCNC(=N)N)C(=O)N[C@@H](C)C(=O)N3)NC(=O)[C@H](CCCNC(=N)N)NC(=O)[C@H](CC(C)C)NC(=O)CNC(=O)[C@H](CCCCNC(=O)CCOCCOCCOCCOCCOCCOCCOCCOCCOCCOCCOCCOCCN)NC2=O` [compound 471], the Nav1.4/Nav1.7 stood at 6 and the Nav1.5/Nav1.7 is on record as 110.

For the compound `CCCC[C@@H]1NC(=O)[C@H](Cc2c[nH]c3ccccc23)NC(=O)[C@H](CCCCN)NC(=O)[C@H](CCC(N)=O)NC(=O)[C@@H](NC(=O)[C@H](Cc2ccc(O)cc2)NC(=O)[C@H](CCC)NC(=O)[C@H](N)CC(C)C)CSSC[C@@H]2NC(=O)[C@@H]3CSSC[C@@H](C(=O)N[C@@H](CCCNC(=N)N)C(=O)N[C@@H](CCCCN)C(=O)N[C@@H](CCC(=O)O)C(=O)N[C@H](C(N)=O)[C@@H](C)CC)NC(=O)[C@H](Cc4c[nH]c5ccccc45)NC(=O)[C@H](CC(C)C)NC(=O)[C@H](CCCCN)NC(=O)[C@H](CSSC[C@H](NC(=O)[C@H]([C@@H](C)O)NC(=O)[C@H](Cc4c[nH]c5ccccc45)NC1=O)C(=O)N[C@@H](CC(=O)O)C(=O)N[C@@H](CO)C(=O)N[C@@H](CCCCN)C(=O)N[C@@H](CCCNC(=N)N)C(=O)N[C@@H](CCCCNC(=O)CCOCCOCCOCCOCCOCCOCCOCCOCCOCCOCCOCCOCCN)C(=O)N3)NC(=O)[C@H](CCCNC(=N)N)NC(=O)[C@H](CC(C)C)NC(=O)CNC(=O)[C@H](CCC(=O)O)NC2=O` [compound 472], the Nav1.4/Nav1.7 came out at 42 and the Nav1.5/Nav1.7 is given as 349. In the case of `CCCC[C@@H]1NC(=O)[C@H](Cc2c[nH]c3ccccc23)NC(=O)[C@H](CCCCN)NC(=O)[C@H](CCC(N)=O)NC(=O)[C@@H](NC(=O)[C@H](Cc2ccc(O)cc2)NC(=O)[C@H](CCC)NC(=O)[C@H](N)CC(C)C)CSSC[C@@H]2NC(=O)[C@@H]3CSSC[C@@H](C(=O)N[C@@H](CCCNC(=N)N)C(=O)N[C@@H](CCCCN)C(=O)N[C@@H](CCC(=O)O)C(=O)N[C@H](C(N)=O)[C@@H](C)CC)NC(=O)[C@H](Cc4c[nH]c5ccccc45)NC(=O)[C@H](CC(C)C)NC(=O)[C@H](CCCCN)NC(=O)[C@H](CSSC[C@H](NC(=O)[C@H]([C@@H](C)O)NC(=O)[C@H](Cc4c[nH]c5ccccc45)NC1=O)C(=O)N[C@@H](CC(=O)O)C(=O)N[C@@H](CO)C(=O)N[C@@H](CCCCN)C(=O)N[C@@H](CCCNC(=N)N)C(=O)N[C@@H](C)C(=O)N3)NC(=O)[C@H](CCCNC(=N)N)NC(=O)[C@H](CC(C)C)NC(=O)CNC(=O)[C@H](CCCCNC(=O)CCOCCOCCOCCOCCOCCOCCOCCOCCOCCOCCOCCOCCN)NC2=O` [compound 473], the Nav1.4/Nav1.7 was found to be 34 and the Nav1.5/Nav1.7 came out at 180.

As for `CCCC[C@@H]1NC(=O)[C@H](Cc2c[nH]c3ccccc23)NC(=O)[C@H](CCCCN)NC(=O)[C@H](CCC(N)=O)NC(=O)[C@@H](NC(=O)[C@H](Cc2ccc(O)cc2)NC(=O)[C@@H](N)CC#N)CSSC[C@@H]2NC(=O)[C@@H]3CSSC[C@@H](C(=O)N[C@@H](CCCNC(=N)N)C(=O)N[C@@H](CCCCN)C(=O)N[C@H](C(=O)N[C@@H](Cc4c[nH]c5ccccc45)C(N)=O)[C@@H](C)CC)NC(=O)[C@H](Cc4c[nH]c5ccccc45)NC(=O)[C@H](CC(C)C)NC(=O)[C@H](CCCCN)NC(=O)[C@H](CSSC[C@H](NC(=O)[C@H]([C@@H](C)O)NC(=O)[C@H](Cc4c[nH]c5ccccc45)NC1=O)C(=O)N[C@@H](CC(=O)O)C(=O)N[C@@H](CO)C(=O)N[C@@H](CCCCN)C(=O)N[C@@H](CCCNC(=N)N)C(=O)N[C@@H](C)C(=O)N3)NC(=O)[C@H](CCCCNC(=O)CCOCCOCCOCCOCCOCCOCCOCCOCCOCCOCCOCCOCCN)NC(=O)[C@H](CC(C)C)NC(=O)CNC(=O)[C@H](CCC(=O)O)NC2=O` [compound 476], the Nav1.4/Nav1.7 is listed as 13 and the Nav1.5/Nav1.7 was 71.

For `CCCC[C@@H]1NC(=O)[C@H](Cc2c[nH]c3ccccc23)NC(=O)[C@H](CCCCN)NC(=O)[C@H](CCC(N)=O)NC(=O)[C@@H](NC(=O)[C@H](Cc2ccccc2)NC(=O)[C@@H](N)CC#N)CSSC[C@@H]2NC(=O)[C@@H]3CSSC[C@@H](C(=O)N[C@@H](CCCNC(=N)N)C(=O)N[C@@H](CCCCN)C(=O)N[C@@H](CCC(=O)O)C(=O)N[C@H](C(N)=O)[C@@H](C)CC)NC(=O)[C@H](Cc4c[nH]c5ccccc45)NC(=O)[C@H](CC(C)C)NC(=O)[C@H](CCCCN)NC(=O)[C@H](CSSC[C@H](NC(=O)[C@H]([C@@H](C)O)NC(=O)[C@H](Cc4c[nH]c5ccccc45)NC1=O)C(=O)N[C@@H](CC(=O)O)C(=O)N[C@@H](CO)C(=O)N[C@@H](CCCCN)C(=O)N[C@@H](CCCNC(=N)N)C(=O)N[C@@H](C)C(=O)N3)NC(=O)[C@H](CCCNC(=N)N)NC(=O)[C@H](CC(C)C)NC(=O)CNC(=O)[C@H](CCCCNC(=O)CCOCCOCCOCCOCCOCCOCCOCCOCCOCCOCCOCCOCCN)NC2=O` [compound 551], the Nav1.4/Nav1.7 amounted to 13. Still for that read-out and setting: the value for `CCCC[C@@H]1NC(=O)[C@H](CO)NC(=O)[C@H](CC(=O)O)NC(=O)[C@@H]2CSSC[C@@H]3NC(=O)[C@H](CCCNC(=N)N)NC(=O)[C@H](CC(C)C)NC(=O)CNC(=O)[C@H](CCCCNC(=O)CCOCCOCCOCCOCCOCCOCCOCCOCCOCCOCCOCCOCCN)NC(=O)[C@H](CSSC[C@H](NC(=O)[C@H](Cc4ccc(O)cc4)NC(=O)[C@@H](N)CC#N)C(=O)N[C@@H](CCC(N)=O)C(=O)N[C@@H](CCCCN)C(=O)N[C@@H](Cc4c[nH]c5ccccc45)C(=O)N[C@@H](CCCC)C(=O)N[C@@H](Cc4c[nH]c5ccccc45)C(=O)N[C@@H]([C@@H](C)O)C(=O)N2)NC(=O)[C@H](CSSC[C@@H](C(=O)N[C@@H](CCCNC(=N)N)C(=O)N[C@@H](CCCCN)C(=O)N[C@@H](CCC(=O)O)C(=O)N[C@H](C(N)=O)[C@@H](C)CC)NC(=O)[C@H](Cc2c[nH]c4ccccc24)NC(=O)[C@H](CC(C)C)NC(=O)[C@H](CCCCN)NC3=O)NC(=O)[C@H](C)NC(=O)[C@H](CCCNC(=N)N)NC1=O` [compound 561] was 33.
